{"source": "patent EP1311486B1", "about": "“USES OF THALIPORPHINE OR ITS DERIVATIVES IN TREATMENT OF CARDIAC DISEASES AND PREPARATION OF SAME” (Lotus Pharmaceutical Co., Ltd., priority 2000, dated 2002)", "key": {"isolated rat hearts": {"test_system": "isolated rat hearts", "assay": "Arrhythmia induced by ligation-reperfusion in isolated rat heart", "experimental": "The isolated rat hearts were ligated by a temporary tightening of the silk ligature around the left main coronary artery to induce myocardial ischemia. Reperfusion was achieved by releasing the tension applying to the ligature to induce arrhythmia. 10µM THP was then administered and the atrial and ventricular electrograms were recorded.\nSimilarly, 10µM THP can be effective in inhibiting the cardiac arrhythmia induced in the isolated guinea pig heart subjected to global ischemia followed by reperfusion (Table 1). The structure of coronary arteries between rat and guinea pig are not alike, THP, however, can be effective in inhibiting the arrhythmia induced in the isolated heart subjected to ischemia-reperfusion in both animals."}, "in vivo anesthetized rat": {"test_system": "in vivo anesthetized rat", "assay": "Reperfusion-induced arrhythmias in the anesthetized rat (5 minutes ischemia, 30 minutes reperfusion)", "experimental": "Myocardial ischemia was performed by a temporary tightening of the silk ligature around the left main coronary artery. Reperfusion was achieved by releasing the tension applied to the ligature (operated groups). Sham operated animals underwent all surgical procedures, apart from the fact that the silk, passing around the left coronary artery, was not tied (sham groups). Animals were infused with a bolus of THP (3.5x10^-7, 3.5x10^-6, 3.5x10^-5 g/kg), L-NAME (N^∞-nitro-L-arginine methyl ester; 1x10^-3 g/kg) or vehicle (dimethyl sulfoxide/ NaCl 0.9%, 1:10^3; v/v) from a jugular vein 15 minutes before coronary occlusion. The coronary artery was occluded for 30 minutes or 5 minutes followed by 30 minutes reperfusion and with the animals then divided randomly in the following groups: (1) sham + vehicle; (2) sham + THP (3.5x10^-5g/kg); (3) operated + vehicle; (4) operated + THP (3.5x10^-7 g/kg); (5) operated + THP (3.5x10^-6 g/kg); (6) operated + THP (3.5x10^-5 g/kg); (7) operated + L-NAME (1x10^-3 g/kg) + THP (3.5x10^-5 g/kg). Before and during the ischemia or reperfusion period, heart rate (HR), blood pressure (BP) and ECG changes were recorded. Ventricular ectopic activity was evaluated according to the diagnostic criteria advocated in the Lambeth Convention. The incidence and duration of ventricular tachyarrhythmias, including ventricular tachycardia (VT) and ventricular fibrillation (VF), in surviving animals was determined. The Mann-Whitney rank-sum test was used to analyze the differences in the duration of VT and VF between vehicle and drug treated groups. The BP and HR changes between vehicle and drug treated rats in the arrhythmia study were analyzed by ANOVA (analysis of variance) followed by Bonferroni's test. The difference in the percentage incidence of VT, VF and mortality rate was analyzed with a Chi-square test. Table 2 Effect of THP on ischemia-induced arrhythmias in the in vivo anesthetized rat\nThe severity of reperfusion induced-arrhythmias is critically dependent upon the duration of the preceding period of ischemia. Thus, the protocol of a 5 minutes period of ischemia followed by a 30 minutes period of reperfusion is selected for producing the highest incidence of rhythm disturbance. […] In contrast, animals pretreated with THP (3.5x10^-6 and 3.5x10^-5 g/kg), experienced a drastic reduction in the incidence of VF from 88% to 29% and 13% (p<0.05) and the duration of VF from 92.4±20.5 seconds to 9.2±8.3 and 1.2±1.2 seconds (p<0.05). The mortality rate also decreases from 75% to 0% by 3.5x10^-6 g/kg THP (p<0.05). However, L-NAME coadministration only partially antagonizes the antiarrhythmic activity and mortality prevention effect of thaliporphine (3.5x10^-5 g/kg)."}, "[1]": {"assay": "DPPH radical scavenging, absorbance at 517 nm", "format": "biochemical", "details": "DPPH 100µM, 25°C, 30 minutes", "experimental": "After incubation of various concentrations of THP with 1,1-diphenyl-2-picrylhydrazyl (DPPH, 100µM) at room temperature (25°C) for 30 minutes, decrease in the absorbance for DPPH at 517 nm was measured to determine the dose-response curve of THP in scavenging DPPH radicals.\nIn the 1,1-diphenyl-2-picrylhydrazyl (DPPH) assay system, the free radical scavenging activity of THP is expressed as IC0.200. The decrease in optical absorbance at 517 nm after addition of THP is monitored following the trapping of the unpaired electron of DPPH. Referring to FIG.4, THP scavenges DPPH in a concentration-dependent manner with IC0.200 of 12.4µmol/L."}, "[2]": {"test_system": "guinea pig right ventricular strips", "assay": "Ouabain-induced arrhythmia in electrically driven right ventricular strips", "details": "10-20µM after 0.6-0.8µM ouabain", "experimental": "The arrhythmia was then induced 5-10 minutes after. 10-20µM THP or its derivatives were administered to reverse the ouabain-induced arrhythmia. 6-7.\nReferring to FIGs. […] The arrhythmia is then induced 5-10 minutes after."}, "[3]": {"test_system": "rats subjected to 4 hours coronary ligation", "assay": "Area at risk and infarct size after 4 hours coronary ligation (triphenyl tetrazolium chloride-Evan's blue staining)", "format": "in vivo, rat", "experimental": "Infarct size was determined by the triphenyl tetrazolium chloride-Evan's blue staining technique. The rat was sacrificed after its left descending coronary artery had been occluded for 4 hours. The weight of infarct tissue was expressed as a percentage of total ventricular weight or occluded zone. The difference in infarct size was statistically analyzed using unpaired Student's t-test. Table 4 Area at risk and infarct size in vehicle and THP-treated rats subjected to 4 hours coronary ligation\nThe difference in ischemic area and infarct size shown by staining technique after 4 hours of ischemia is evaluated. […] In the vehicle group, the necrotic area expresses either as a percentage of the area at risk (45.2±1.0%) or as a percentage of the total ventricle (19.8±2.2%), indicating the amount of cardiac tissue at risk becomes necrotic. Administration of THP reduces myocardial necrosis extension in a dose dependent manner. This reduction is observed either in the necrotic area/area at risk (38.1±5.0%, 29.0±2.5% and 10.7±1.8%/with 3.5x10^-7, 10^-6, 10^-5 g/kg of THP, respectively) or in the necrotic area/total ventricle (17.9+2.3%, 13.4±1.2% and 5.0±0.9% with 3.5x10^-7, 10^-6, 10^-5 g/kg of THP, respectively)."}}, "note": "“And” between values parts separate entries of the source, which are not always exact repeats. Equal entries are not always repeated. Marks after values point to notes of the source that are not given here."}
{"smiles": "COc1cc2c(cc1OC)-c1c(O)c(OC)cc3c1C(C2)N(C)CC3", "note": "(single isomer, unassigned; (+)) [THP, (+)-Thaliporphine]", "values": [{"measurement": "effect on polymorphic ventricular tachyrhythmia induced by ischemia-reperfusion", "setting": "isolated rat hearts; 10 µM, FIG. 5 (a)", "result": "conversion of polymorphic ventricular tachyrhythmia induced by ischemia-reperfusion to normal sinus rhythm"}, {"measurement": "IC50", "setting": "isolated rat hearts; 0.5 h, isolated rat heart, 30 minutes ligation followed by reperfusion, 3-30µM, read-out: IC50, reversing the cardiac arrhythmia", "result": 15.7, "unit": "µM"}, {"measurement": "Mortality (%)", "setting": "in vivo anesthetized rat; THP 3.5x10^-5 g/kg i.v.", "result": "0* %"}, {"measurement": "VF Duration", "setting": "in vivo anesthetized rat; THP 3.5x10^-5 g/kg i.v.", "result": "1.2 ± 1.2", "unit": "s"}, {"measurement": "VF Incidence(%)", "setting": "in vivo anesthetized rat; THP 3.5x10^-5 g/kg i.v.", "result": "13% and 14* %"}, {"measurement": "VT Duration", "setting": "in vivo anesthetized rat; THP 3.5x10^-5 g/kg i.v.", "result": "7.6 ± 3.2", "unit": "s"}, {"measurement": "VT Incidence(%)", "setting": "in vivo anesthetized rat; THP 3.5x10^-5 g/kg i.v.", "result": 71, "unit": "%"}, {"measurement": "Mortality (%)", "setting": "in vivo anesthetized rat; THP 3.5x10^-6 g/kg i.v.", "result": 0, "unit": "%"}, {"measurement": "VF Duration", "setting": "in vivo anesthetized rat; THP 3.5x10^-6 g/kg i.v.", "result": "9.2 ± 8.3", "unit": "s"}, {"measurement": "VF Incidence(%)", "setting": "in vivo anesthetized rat; THP 3.5x10^-6 g/kg i.v.", "result": 29, "unit": "%"}, {"measurement": "VT Duration", "setting": "in vivo anesthetized rat; THP 3.5x10^-6 g/kg i.v.", "result": "14.6 ± 9.1", "unit": "s"}, {"measurement": "VT Incidence(%)", "setting": "in vivo anesthetized rat; THP 3.5x10^-6 g/kg i.v.", "result": 57, "unit": "%"}, {"measurement": "Mortality (%)", "setting": "in vivo anesthetized rat; THP 3.5x10^-7 g/kg i.v.", "result": 43, "unit": "%"}, {"measurement": "VF Duration", "setting": "in vivo anesthetized rat; THP 3.5x10^-7 g/kg i.v.", "result": "75.5 ± 15.6", "unit": "s"}, {"measurement": "VF Incidence(%)", "setting": "in vivo anesthetized rat; THP 3.5x10^-7 g/kg i.v.", "result": 86, "unit": "%"}, {"measurement": "VT Duration", "setting": "in vivo anesthetized rat; THP 3.5x10^-7 g/kg i.v.", "result": "28.6 ± 10.4", "unit": "s"}, {"measurement": "VT Incidence(%)", "setting": "in vivo anesthetized rat; THP 3.5x10^-7 g/kg i.v.", "result": 86, "unit": "%"}, {"measurement": "IC0.200, scavenging of DPPH", "setting": "[1]", "result": 12.4, "unit": "µmol/L"}, {"measurement": "reversal of ouabain-induced arrhythmia", "setting": "[2]", "result": "effective in reversing the arrhythmia"}, {"measurement": "Area at risk (% of ventricle)", "setting": "[3]; THP 3.5x10^-5 g/kg", "result": "46.9±0.5 % of ventricle"}, {"measurement": "Necrotic (% of Area at risk)", "setting": "[3]; THP 3.5x10^-5 g/kg", "result": "10.7±1.8 % of Area at risk"}, {"measurement": "Necrotic (% of ventricle)", "setting": "[3]; THP 3.5x10^-5 g/kg", "result": "5.0±0.9 % of ventricle"}, {"measurement": "Area at risk (% of ventricle)", "setting": "[3]; THP 3.5x10^-6 g/kg", "result": "46.5±0.9 % of ventricle"}, {"measurement": "Necrotic (% of Area at risk)", "setting": "[3]; THP 3.5x10^-6 g/kg", "result": "29.0±2.5 % of Area at risk"}, {"measurement": "Necrotic (% of ventricle)", "setting": "[3]; THP 3.5x10^-6 g/kg", "result": "13.4±1.2 % of ventricle"}, {"measurement": "Area at risk (% of ventricle)", "setting": "[3]; THP 3.5x10^-7 g/kg", "result": "47.0±0.6 % of ventricle"}, {"measurement": "Necrotic (% of Area at risk)", "setting": "[3]; THP 3.5x10^-7 g/kg", "result": "38.1±5.0 % of Area at risk"}, {"measurement": "Necrotic (% of ventricle)", "setting": "[3]; THP 3.5x10^-7 g/kg", "result": "17.9+2.3 % of ventricle and 17.9±2.3 % of ventricle"}]}
